Measurements: patent US7741327B2 (Hoffmann-La Roche Inc., priority 2008, dated 2010)

molecular target: T1, Recombinant human liver GK1 (GST-GK) (Homo sapiens, UniProt P35557); assay: In vitro glucokinase activity (G6PDH-coupled NADH assay); assay type: biochemical; conditions: 30° C., 5 mM D-glucose, 10% DMSO
T1 construct: made in house; host or cells: E. coli
T1 sequence (P35557 1-466 isoform P35557-2): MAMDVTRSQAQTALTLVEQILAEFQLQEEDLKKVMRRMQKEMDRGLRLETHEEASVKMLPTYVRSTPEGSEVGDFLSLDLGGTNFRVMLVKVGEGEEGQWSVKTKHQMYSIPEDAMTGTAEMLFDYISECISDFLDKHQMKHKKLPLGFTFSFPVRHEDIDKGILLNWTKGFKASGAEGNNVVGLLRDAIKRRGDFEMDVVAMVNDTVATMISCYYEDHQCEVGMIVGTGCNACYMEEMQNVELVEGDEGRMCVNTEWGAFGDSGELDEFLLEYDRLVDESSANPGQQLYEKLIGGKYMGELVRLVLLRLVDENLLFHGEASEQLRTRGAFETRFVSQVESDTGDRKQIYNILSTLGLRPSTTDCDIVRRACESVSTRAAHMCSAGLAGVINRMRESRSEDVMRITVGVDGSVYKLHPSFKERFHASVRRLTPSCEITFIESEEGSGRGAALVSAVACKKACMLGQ
In short: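 GST-tagged human liver GK1 from E. coli, assayed at 30° C in 25 mM Hepes pH 7.1 with 5 mM D-glucose, 1 mM ATP, 1.8 mM NAD and G6PDH coupling, 10% DMSO final; reaction started with enzyme after 10 min preincubation. NADH formation followed at OD340; SC1.5 is activator concentration giving 50% increase over DMSO control rate.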

SC1.5 (concentration of activator that produced a 50% increase in the activity of GK) [µM] | SMILES
0.984 | CCOc1cccc(OC2=CC(=O)N([C@@H](C[C@H](C)OCC)C(=O)Nc3ccn(CC(C)(C)O)n3)C2)c1F [Example 259, (2S,4S)-4-Ethoxy-2-[4-(3-ethoxy-2-fluoro-phenoxy)-2-oxo-2,5-dihydro-pyrrol-1-yl]-pentanoic acid [1-(2-hydroxy-2-methyl-propyl)-1H-pyrazol-3-yl]-amide]
4.435 | CCOc1ccc(F)c(OC2=CC(=O)N([C@H](CC3CCOCC3)C(=O)Nc3ccn(CC(C)(C)O)n3)C2)c1F (single isomer, unassigned) [Example 258]
0.018 | Cc1cccc(OC2=CC(=O)N([C@@H](CC3CCCCC3)C(=O)Nc3ccn(CC(C)(C)O)n3)C2)c1 [Example 210, (S)-3-cyclohexyl-N-[1-(2-hydroxy-2-methyl-propyl)-1H-pyrazol-3-yl]-2-(2-oxo-4-m-tolyloxy-2,5-dihydro-pyrrol-1-yl)-propionamide]
0.093 | CC1(C)OC[C@@H](Cn2ccc(NC(=O)[C@H](CC3CCCC3)N3CC(Oc4c(F)cccc4F)=CC3=O)n2)O1 [Example 87, (S)-3-Cyclopentyl-2-[4-(2,6-difluoro-phenoxy)-2-oxo-2,5-dihydro-pyrrol-1-yl]-N-[1-((R)-2,2-dimethyl-[1,3]dioxolan-4-yl-methyl)-1H-pyrazol-3-yl]-propionamide]
0.073 | CC(C)(O)Cn1ccc(NC(=O)C(CC2CCOCC2)N2CC(Oc3ccccc3Br)=CC2=O)n1 (stereo not drawn) [Example 261, 2-[4-(2-Bromo-phenoxy)-2-oxo-2,5-dihydro-pyrrol-1-yl]-N-[1-(2-hydroxy-2-methyl-propyl)-1H-pyrazol-3-yl]-3-(tetrahydro-pyran-4-yl)-propionamide]
0.198 | CC(C)C[C@@H](C(=O)Nc1ccn(CC(C)(C)O)n1)N1CC(Oc2c(F)cccc2F)=CC1=O [Example 45, (S)-2-[4-(2,6-difluoro-phenoxy)-2-oxo-2,5-dihydro-pyrrol-1-yl]-4-methyl-pentanoic acid [1-(2-hydroxy-2-methyl-propyl)-1H-pyrazol-3-yl]-amide]
0.053 | COc1cccc(OC2=CC(=O)N(C(CC3CCOCC3)C(=O)Nc3ccn(C[C@@H](O)CO)n3)C2)c1Cl (stereo partly drawn) [Example 53, 2-[4-(2-Chloro-3-methoxy-phenoxy)-2-oxo-2,5-dihydro-pyrrol-1-yl]-N-[1-((R)-2,3-dihydroxy-propyl)-1H-pyrazol-3-yl]-3-(tetrahydro-pyran-4-yl)-propionamide]
0.477 | CC(C)(O)Cn1ccc(NC(=O)[C@H](CC2CCCCO2)N2CC(Oc3c(F)cccc3F)=CC2=O)n1 (stereo partly drawn) [Example 93, (S)-2-[4-(2,6-Difluoro-phenoxy)-2-oxo-2,5-dihydro-pyrrol-1-yl]-N-[1-(2-hydroxy-2-methyl-propyl)-1H-pyrazol-3-yl]-3-(tetrahydro-pyran-2-yl)-propionamide]
0.033 | COc1cccc(OC2=CC(=O)N(C(CC3CCOCC3)C(=O)Nc3ccn(CC(C)(C)O)n3)C2)c1Cl (stereo not drawn) [Example 50, 2-[4-(2-Chloro-3-methoxy-phenoxy)-2-oxo-2,5-dihydro-pyrrol-1-yl]-N-[1-(2-hydroxy-2-methyl-propyl)-1H-pyrazol-3-yl]-3-(tetrahydro-pyran-4-yl)-propionamide]
3.771 | COC1=CC(=O)N([C@@H](CC2CCCC2)C(=O)Nc2ccn(CC(C)(C)O)n2)C1 [Example 1, (S)-3-Cyclopentyl-N-[1-(2-hydroxy-2-methyl-propyl)-1H-pyrazol-3-yl]-2-(4-methoxy-2-oxo-2,5-dihydro-pyrrol-1-yl)-propionamide]

Continued, molecule first:

SMILES | SC1.5 (concentration of activator that produced a 50% increase in the activity of GK) [µM]
CC(C)C[C@@H](C(=O)Nc1ccn(CC(N)=O)n1)N1CC(Oc2cccc(C3CC3)c2F)=CC1=O [Example 156, (S)-2-[4-(3-Cyclopropyl-2-fluoro-phenoxy)-2-oxo-2,5-dihydro-pyrrol-1-yl]-4-methyl-pentanoic acid (1-carbamoylmethyl-1H-pyrazol-3-yl)-amide] | 0.406
CCN(C)C1=CC(=O)N([C@@H](CC2CCCCC2)C(=O)Nc2ccn(CC(C)(C)O)n2)C1 [Example 233, (S)-3-cyclohexyl-2-[4-(ethyl-methyl-amino)-2-oxo-2,5-dihydro-pyrrol-1-yl]-N-[1-(2-hydroxy-2-methyl-propyl)-1H-pyrazol-3-yl]-propionamide] | 13.348
CCOc1cccc(OC2=CC(=O)N([C@@H](CC(C)C)C(=O)Nc3cnc([C@H](O)CO)cn3)C2)c1F [Example 151, (S)-2-[4-(3-Ethoxy-2-fluoro-phenoxy)-2-oxo-2,5-dihydro-pyrrol-1-yl]-4-methyl-pentanoic acid [5-((S)-1,2-dihydroxy-ethyl)-pyrazin-2-yl]-amide] | 0.063
CC(C)C[C@@H](C(=O)Nc1ccn(C[C@@H](O)CO)n1)N1CC(Oc2cccc(Cl)c2F)=CC1=O [Example 97, (S)-2-[4-(3-Chloro-2-fluoro-phenoxy)-2-oxo-2,5-dihydro-pyrrol-1-yl]-4-methyl-pentanoic acid [1-((R)-2,3-dihydroxy-propyl)-1H-pyrazol-3-yl]-amide] | 0.168
COc1cccc(OC2=CC(=O)N([C@@H](CC(C)C)C(=O)Nc3ccn(CC(C)(C)O)n3)C2)c1 [Example 165, (S)-2-[4-(3-Methoxy-phenoxy)-2-oxo-2,5-dihydro-pyrrol-1-yl]-4-methyl-pentanoic acid [1-(2-hydroxy-2-methyl-propyl)-1H-pyrazol-3-yl]-amide] | 0.243
CC[C@@H](C)C[C@@H](C(=O)Nc1ccn(C[C@@H](O)CO)n1)N1CC(Oc2ccccc2Cl)=CC1=O [Example 255, (2S,4R)-2-[4-(2-Chloro-phenoxy)-2-oxo-2,5-dihydro-pyrrol-1-yl]-4-methyl-hexanoic acid [1-((R)-2,3-dihydroxy-propyl)-1H-pyrazol-3-yl]-amide] | 0.048
CC(C)C[C@@H](C(=O)Nc1ccn(C[C@@H](O)CO)n1)N1CC(Oc2cccc3c2CCCC3)=CC1=O [Example 98, (S)-4-Methyl-2-[2-oxo-4-(5,6,7,8-tetrahydro-naphthalen-1-yloxy)-2,5-dihydro-pyrrol-1-yl]-pentanoic acid [1-((R)-2,3-dihydroxy-propyl)-1H-pyrazol-3-yl]-amide] | 0.212
CC(C)C[C@@H](C(=O)Nc1ccn(C[C@@H]2COC(C)(C)O2)n1)N1CC(Oc2cccc(CC(C)(C)O)c2)=CC1=O [Example 237, (S)-2-{4-[3-(2-Hydroxy-2-methyl-propyl)-phenoxy]-2-oxo-2,5-dihydro-pyrrol-1-yl}-4-methyl-pentanoic acid [1-((R)-2,2-dimethyl-[1,3]dioxolan-4-ylmethyl)-1H-pyrazol-3-yl]-amide] | 1.969
